Experimental data: PubChem BioAssay (NCI)
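48-hour exposure; five concentrations; linearly interpolated endpoints. GI50 = concentration required for 50% inhibition of growth. TGI: concentration producing complete growth inhibition.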

Tests used:
Experiment in all cases: NCI tumour cell line growth inhibition, 48 h
DMS 114 small cell lung = system: DMS 114 small cell lung
HOP-18 NSCLC = system: HOP-18 NSCLC
KM20L2 colon = system: KM20L2 colon
M19-MEL melanoma = system: M19-MEL melanoma
MDA-N = system: MDA-N
P388 leukemia = system: P388 leukemia
P388/ADR leukemia = system: P388/ADR leukemia
SN12K1 renal = system: SN12K1 renal
XF 498 CNS = system: XF 498 CNS
LXFL 529 NSCLC = system: LXFL 529 NSCLC
SNB-78 CNS = system: SNB-78 CNS
RXF-631 renal = system: RXF-631 renal

Row | Compound | TGI (DMS 114 small cell lung) | TGI (HOP-18 NSCLC) | TGI (KM20L2 colon) | TGI (M19-MEL melanoma) | TGI (MDA-N) | TGI (XF 498 CNS) | TGI (LXFL 529 NSCLC) | TGI (SNB-78 CNS) | also measured
1 | CC(=O)OC1C(O)C(C)OC(OC2C(OC(=O)C3CCC4C(C3)OC3(CC(OC(=O)/C=C/c5ccccc5)C(C)CO3)C43CO3)OC(C)C(O)C2OC(C)=O)C1O (stereo not given) | 0.0727 µM | 0.413 µM | 0.21 µM | 0.0665 µM | 0.0182 µM | 0.0896 µM |  |  | TGI (P388 leukemia): 0.279 µM; TGI (P388/ADR leukemia): > 2.5 µM; TGI (SN12K1 renal): 0.0583 µM
2 | COc1ccc(C2=C(c3ccccc3)C(=O)N3CCCC3C2)cc1 (stereo not given) |  |  |  |  | > 100 µM |  |  |  | GI50 (MDA-N): 0.441 µM
3 | Cc1[nH]c(=O)n2c(C)nnc2c1C(=O)O | > 100 µM |  |  | > 100 µM |  | > 100 µM | > 100 µM | > 100 µM | 
4 | O=C(O)CN1C(=O)OC(c2ccccc2)C1=O (stereo not given) |  |  |  |  | > 100 µM |  |  |  | 
5 | CCCCCc1cc(/C=C2/N=C(c3ccc[nH]3)C=C2OC)[nH]c1C |  |  |  |  | 0.155 µM |  |  |  | 
6 | CC(C)(C)N1CC1CNC(=O)C(=O)NCC1CN1C(C)(C)C (stereo not given) | 2.49 µM |  | 5.96 µM | 2.62 µM | > 92.9 µM | 1.31 µM |  |  | 
7 | CC1=C2CC[C@@]3(C)C(=CCC3O)C2(C)CCC1=O (stereo not given in full) | > 100 µM | > 100 µM | > 100 µM | > 100 µM |  |  | > 100 µM | > 100 µM | TGI (RXF-631 renal): > 100 µM
8 | c1cc2c(cc1C1OCC3C(c4ccc5c(c4)OCO5)OCC13)OCO2 (stereo not given) | > 100 µM | > 100 µM | > 100 µM | > 100 µM |  | 99.8 µM | > 100 µM | > 100 µM | 
9 | CC[O-].CC[O-].O=C1C=C([O-])C(=O)c2ccccc21.O=C1C=C([O-])C(=O)c2ccccc21.[Ti+4] |  | > 100 µM | > 100 µM | 3.81 µM |  | > 100 µM | > 100 µM |  | GI50 (HOP-18 NSCLC): > 100 µM; GI50 (KM20L2 colon): 84.7 µM; GI50 (LXFL 529 NSCLC): 83.3 µM; GI50 (M19-MEL melanoma): 1.61 µM; GI50 (XF 498 CNS): > 100 µM
10 | c1ccc2cc(C3NCCc4[nH]cnc43)ccc2c1 (stereo not given) | > 100 µM | > 100 µM | > 100 µM | > 100 µM |  |  | > 100 µM | > 100 µM | 
11 | O=C1CCc2cc(Br)ccc2O1 |  |  |  |  | > 100 µM |  |  |  | 
12 | COc1cc(-c2oc3c(OC)c(O)c(OC)c(O)c3c(=O)c2OC)cc(OC)c1OC |  |  |  |  | > 100 µM |  |  |  | 
13 | CC(=O)OC(C(=O)[O][Ge]([CH3])([CH3])[CH3])c1ccccc1 (stereo not given) | > 100 µM | > 100 µM | > 100 µM | > 100 µM |  |  | > 100 µM | > 100 µM | GI50 (DMS 114 small cell lung): > 100 µM; GI50 (HOP-18 NSCLC): > 100 µM; GI50 (KM20L2 colon): > 100 µM; GI50 (LXFL 529 NSCLC): > 100 µM; GI50 (M19-MEL melanoma): > 100 µM; GI50 (SNB-78 CNS): > 100 µM
14 | CCOC(=O)CCc1c(C)c2c(OC)cc(OC)cc2oc1=O |  | 99 µM | > 100 µM | > 100 µM |  | 93.8 µM | > 100 µM | > 100 µM | 
15 | C/C=C1\Oc2ccc(OC)cc2S1(=O)=O | > 100 µM | > 100 µM | > 100 µM | > 100 µM |  |  | > 100 µM | > 100 µM | 
16 | CCCCCCCCCCCCC(O)C1CCC(C(O)CCCCC(O)CCCCCC2CC(CC(C)=O)C(=O)O2)O1 (stereo not given) | 7.78 µM | 23.3 µM | 19.7 µM | 12.5 µM | 4.81 µM | 8.44 µM | 16.3 µM | > 41 µM | TGI (RXF-631 renal): 16.7 µM
17 | COc1ccc(OC(=O)N2C/C(=C\c3ccccc3)C(=O)/C(=C/c3ccccc3)C2)cc1 |  | 49.5 µM | 17 µM | 2.9 µM | 3.47 µM |  | 6.92 µM | 27.3 µM | 
18 | O=C(c1ccccc1)n1cc(/C=C/[N+](=O)[O-])c2ccccc21 | 38 µM | > 100 µM |  | 38.9 µM |  | 78.5 µM | 35.1 µM | 79.9 µM | TGI (RXF-631 renal): 48.2 µM
19 | C=C(C)COc1ccc2c(c1)CCC1C2CCC2(C)C(=O)/C(=N/O)CC12 (stereo not given) |  |  |  |  | 14.7 µM |  |  |  | 
20 | O=c1cccccc1[O-].O=c1cccccc1[O-].O=c1cccccc1[O-].[Nd+3] |  |  | > 100 µM |  |  |  |  | > 100 µM | GI50 (KM20L2 colon): 31.7 µM; GI50 (SNB-78 CNS): 20.6 µM
21 | COc1ccccc1/C=C1\CCC(Cc2ccccc2)(CN(C)C)C1=O (stereo not given) | > 36.2 µM | > 100 µM | 2.34 µM | > 58.9 µM | 3.12 µM | > 72.6 µM | > 52.3 µM | > 23.2 µM | TGI (RXF-631 renal): 9.92 µM
22 | COC(=O)c1cc(O)ccc1O | > 100 µM |  |  | > 100 µM |  | > 100 µM | > 100 µM | > 100 µM | TGI (RXF-631 renal): > 100 µM
23 | CNC(=O)/C=C/C1=CN2C(=O)c3ccc(C)c(O)c3NC(OC)C2C1 (stereo not given) |  |  |  |  | < 0.0211 µM |  |  |  | 
24 | O=C(CCN1CCCCC1)c1csc2ccccc12 |  |  |  |  | > 100 µM |  |  |  | 
25 | OC1CC(O)O[C@H](c2ccccc2)C1 (stereo not given in full) |  | > 100 µM | > 100 µM | > 100 µM |  |  | > 100 µM | > 100 µM | 
26 | Cc1ccccc1N(CCC#N)C1=NN(C(=O)CC(=O)Nc2ccc(Cl)cc2)C(c2ccccc2)C1 (stereo not given) | > 100 µM | > 100 µM | > 100 µM | > 100 µM |  |  | > 100 µM | > 100 µM | TGI (RXF-631 renal): > 100 µM
